Measurements reported in US8398958B2, “Carotenoid compositions useful for whitening skin” (I.B.R. Israeli Biotechnology Research Ltd., priority 2006, dated 2013).

How the values were obtained:
[1] = test system: Normal human epidermal melanocytes (NHEM-2); assay: Melanin assay - normal human melanocytes; type: cell-based; details: for Melanin: 240 hours incubation; for % of control (melanin content): 240 hours, vs control
Method: The R6-NHEM-2 cells were cultivated in 24 well plates (120,000 cells/well). At 50% confluence, culture media were replaced by fresh media containing or not containing (control) the test compound, KA or IBMX (references) or DMSO at a final concentration of 0.5% (control DMSO). Each experimental condition was examined in triplicate (hexaplicate for control). The cells were incubated at 37° C. for 240 hours with medium change every 3 days.
(§1) After incubation, the cell monolayers were rinsed, the cells were lysed and melanin was extracted by a solution 0.5 M NaOH. The optical density (OD) of each experimental point was measured at 405 nm against melanin standards (standard curve 0.39 to 100 μg melanin/ml solution, Sigma M8631). Results were expressed in μg melanin/ml and in percent of the negative control.
(§2) The raw data were transferred to and analyzed with PRISM® software (Graph Pad Software). The inter-group comparisons were performed by variance analysis (ANOVA) with multiple comparison test of Dunnett.

[2] = test system: B16 murine melanoma cells; assay: Melanin assay - B16 murine melanoma; type: cell-based; details: tested at 0.04%
Method: The R7-B16 cells were cultivated in 24 well plates (1000 cells/well). At 20% confluence, culture media were replaced by fresh media containing or not containing (control) the test compound, KA or IBMX (references) or DMSO at a final concentration of 0.5% (control DMSO). Each experimental condition was examined in triplicate. The cells were incubated at 37° C. for 144 hours with medium change after 3 days (2×72 h).
as §1, §2

SMILES: O=c1cc(CO)occ1O [Kojic Acid]
- Melanin ([1]; tested at 0.00156%): 16.1 µg/mL
- % of control (melanin content) ([1]; tested at 0.00156%): 79%
- Melanin ([1]; tested at 0.0036%): 13.6 µg/mL
- % of control (melanin content) ([1]; tested at 0.0036%): 67%
- Melanin ([2]; 144 hours incubation): 14.9 µg/mL
- % of control (melanin content) ([2]; 144 hours, vs control): 88%
